Measured values from patent publication US11014908B2, “Chemical compounds” (Pfizer Inc., priority 2018, dated 2021).

Experiments:
human HbA = human HbA (Homo sapiens, UniProt P68871+P69905); assay: Co-crystallization with HbA; conditions: 1.85 Å co-crystal structure with human HbA
Source text: Co-Crystallization with HbA
The binding of the compound of Example 58 to hemoglobin (Hb) was further investigated through co-crystallization experiments. Given the structural and functional similarity of HbS and HbA, and the large quantity of material needed for structural studies, purified HbA was utilized for these studies.
HbA with Example 58 was crystallized according to published protocols (Lee et al. “Crowning proteins: modulating the protein surface properties using crown ethers”, Angew Chem Int Ed Engl 2014; 53(48):13054-13058). Briefly, 20 mg/mL HbA in 20 mM Tris-HCl (pH 8.0) was mixed with equal volume of 50 mM 18-crown-6 solution and incubated at 20° C. for 20 minutes. Example 58 was then added to a final concentration of 1.5 mM and further incubated for an additional 1 hr. Crystallization was performed at 20° C. using hanging drop vapor diffusion method by mixing equal volumes of protein and reservoir solution containing 0.1 M Tris-HCl (pH 8.0), 0.2 M Li2SO4 and 30-32% PEG 3350. Crystals grew to their maximum size in ˜2 days and the crystals were further soaked overnight with 10 mM Example 58. Diffraction data were collected at the Argonne National Laboratory Advanced Photon Source, beamline 17-ID. The data was processed using autoPROC (Global Phasing Limited) and the structure was solved using 3WHM (PDB code) as a starting model. […]

Hb in dog whole blood = biological target: T1, Hb in dog whole blood (Canis lupus familiaris, UniProt P60524+P60529); assay: Whole blood oxygen affinity assay (Hemox analyzer), dog blood; conditions: 1 mM compound, 1 hour at 25 C, relative to DMSO
T1 construct: measured in human, dog, and mouse whole blood; from tissue; host or cells: dog whole blood
Source text: Whole Blood Oxygen Affinity Assay
Oxygen affinity is a marker of the ability of Hb to bind and release oxygen in solution. It can be determined in whole blood by measuring the percentage of oxygenated and deoxygenated Hb present at a given oxygen concentration. Oxygen affinity is expressed as the p50, the partial pressure of oxygen at which 50% of the Hb in solution has oxygen bound, or the p20, the partial pressure of oxygen at which 20% of the Hb in solution has oxygen bound.
To determine the effects of compounds of the invention on oxygen affinity the p50 and p20 were measured in human, dog, and mouse whole blood using a Hemeox Analyzer (TCS Scientific). The blood was spiked with a compound of the invention to a concentration of 1 mM and incubated for 1 hour at 25 C with constant rotation. A concentration of 1 mM of compound was selected to approximate 20% hemoglobin occupancy in whole blood. Controls with the same concentration of DMSO, but no compound were incubated in the same way at the same time. Following incubation, samples were immediately assayed for oxygen affinity using the Hemox analyzer. […] Once samples had reached an pO2 of >150 torr, the measurement was initiated by switching to N2, and the percent oxyhemoglobin as a function of partial pressure was recorded. The p20 and p50 of each sample were recorded from the instrument readout. […]

In the case of `C[C@H](Oc1cc2cc(F)ccc2nc1N)c1nc(O)ccc1-n1cccn1` [Example 58, 6-{(1S)-1-[(2-amino-6-fluoroquinolin-3-yl)oxy]ethyl}-5-(1H-pyrazol-1-yl)pyridin-2-ol], the “Hb conformation bound in co-crystal structure” value (human HbA) is reported as “binds to the oxygenated (R state) conformation of Hb”, the “Reduction in p20 (%) Dog” value (Hb in dog whole blood) is reported as 10 ± 6% and the “Reduction in p50 (%) Dog” value (Hb in dog whole blood) is reported as 6 ± 6%.
